This note sets out measurements from patent publication US8546376B2, “Pharmaceutical compounds” (Almac Discovery Limited, priority 2009, dated 2013).

Common to all, as to assay type: biochemical
For one assay, the target named is T1, AKT2 (Homo sapiens, UniProt P31751).
T1 construct: purchased SignalChem
The assay is described as follows: AKT Kinase Assay (IMAP fluorescent polarisation) vs AKT2. The settings on record: activated AKT2, FAM Crosstide substrate. On the procedure: (§1) Testing of the compounds was performed using an AKT Kinase Assay:
(§2) Activated AKT isoforms 1, 2 and 3 were assayed utilising a 5′ FAM Crosstide (Seq. GRPRTSSFAEG-OH). The extent of kinase phosphorylation was determined by fluorescent polarisation using IMAP progressive binding reagent, which introduces binding beads which allow the reagent to specifically bind to phosphate residues via covalent co-ordination complex bonds.
(§3) iMAP binding solution stops Crosstide/kinase interaction and specifically binds phosphorylated substrates. The degree of phosphorylation is determined by fluorescent polarisation (excitation 485 nm; emission 528 nm) or the reduction in speed of rotation of the excited substrate.
(§4) The following materials were used in the assay: • a) Activated AKT isoforms (SignalChem.) dissolved in Complete Reaction buffer at a pre-determined concentration selected so that the assay was carried out in the linear range. • b) AKT substrate peptide: FAM Crosstide (R7110) Molecular Devices, diluted in complete reaction buffer. • c) iMAP Progressive Screening Express Kit (R8127) Molecular Devices • d) Complete Reaction Buffer containing 0.1% BSA, 10 mM Tris-HCl, 10 mM MgCl2, 0.05% NaN3 and 0.01% phosphate free BSA, 1 mM DTT • e) Progressive Binding Solution containing 75% Buffer A, 25% Buffer B and low volume Binding Reagent which contains the binding entity for the assay • f) ATP diluted in complete reaction buffer • g) Black polystyrene 384 well assay plates (Nunc). • h) Biotek Synergy 4 Hybrid Plate reader.
(§5) 5 μl of test compound was dissolved in DMSO (Sigma Aldrich) and serially diluted in complete reaction buffer to give a fourteen point half log dose response and plated into 384 well black plates. The compound was incubated at room temperature with activated AKT isoform (5 μl) at the pre-determined concentration, for 45 minutes.
(§6) 2.5 μl of ATP solution mixed with 2.5 μl of AKT substrate peptide (FAM Crosstide (R7110) Molecular Devices) were dispensed into each well and the plate centrifuged at 1000 rpm for 20 seconds to ensure homogenous mixing of reagents. The reaction mix was incubated in the dark for one hour at room temperature.
(§7) The kinase reaction was stopped by the addition of Progressive Binding Solution and the mixture allowed to equilibrate for one hour in the dark, at room temperature.
(§8) The fluorescent polarisation generated in each well was determined using a […] Synergy 4 Hybrid plate reader. In brief, each reaction solution was excited at 485 nm with the emission measured at 528 nm in both the parallel and perpendicular pathway.
(§9) The polarisation value generated in each well was calculated by Gen5 software (Biotek) and the % inhibition of kinase activity compared to vehicle control was calculated via GraphPad Prism. IC50 values for each compound were calculated by non-linear regression analysis using Prism software.
(§10) All plates were internally controlled by two methods. Firstly, by calculating the signal:noise ratio; based on kinase polarisation without inhibitor and polarisation generated by complete reaction buffer in the absence of activated kinase. Secondly by determining IC50 values generated by known inhibitors of the AKT isoforms.

For the next assay, the target named is T2, AKT3 (Homo sapiens, UniProt Q9Y243).
T2 construct: purchased SignalChem
The assay is described as follows: AKT Kinase Assay (IMAP fluorescent polarisation) vs AKT3. The conditions noted are these: activated AKT3, FAM Crosstide substrate. How it is done:
as §1, §2, §3, §4, §5, §6, §7, §8, §9, §10

The next assay concerns the target T3, AKT1 (Homo sapiens, UniProt P31749).
T3 construct: purchased SignalChem
In words: AKT Kinase Assay (IMAP fluorescent polarisation) vs AKT1. The conditions noted are these: activated AKT1, FAM Crosstide substrate. How it is done:
as §1, §2, §3, §4, §5, §6, §7, §8, §9, §10

Counter-ions that a name gives are not always drawn.

T3 sequence (P31749 whole entry): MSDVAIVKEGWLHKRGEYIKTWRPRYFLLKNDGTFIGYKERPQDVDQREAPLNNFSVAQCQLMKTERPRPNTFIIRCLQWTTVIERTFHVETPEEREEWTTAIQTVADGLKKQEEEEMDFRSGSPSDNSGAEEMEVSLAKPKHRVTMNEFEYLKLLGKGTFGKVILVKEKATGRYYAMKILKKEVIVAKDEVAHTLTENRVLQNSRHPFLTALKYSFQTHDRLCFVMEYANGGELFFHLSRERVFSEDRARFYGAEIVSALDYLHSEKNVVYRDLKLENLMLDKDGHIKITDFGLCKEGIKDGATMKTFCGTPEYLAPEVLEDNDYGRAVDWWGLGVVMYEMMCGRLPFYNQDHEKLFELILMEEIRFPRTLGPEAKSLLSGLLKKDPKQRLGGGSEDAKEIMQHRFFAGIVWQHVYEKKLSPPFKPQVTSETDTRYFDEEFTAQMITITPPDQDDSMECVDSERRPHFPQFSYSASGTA
T1 sequence (P31751 whole entry): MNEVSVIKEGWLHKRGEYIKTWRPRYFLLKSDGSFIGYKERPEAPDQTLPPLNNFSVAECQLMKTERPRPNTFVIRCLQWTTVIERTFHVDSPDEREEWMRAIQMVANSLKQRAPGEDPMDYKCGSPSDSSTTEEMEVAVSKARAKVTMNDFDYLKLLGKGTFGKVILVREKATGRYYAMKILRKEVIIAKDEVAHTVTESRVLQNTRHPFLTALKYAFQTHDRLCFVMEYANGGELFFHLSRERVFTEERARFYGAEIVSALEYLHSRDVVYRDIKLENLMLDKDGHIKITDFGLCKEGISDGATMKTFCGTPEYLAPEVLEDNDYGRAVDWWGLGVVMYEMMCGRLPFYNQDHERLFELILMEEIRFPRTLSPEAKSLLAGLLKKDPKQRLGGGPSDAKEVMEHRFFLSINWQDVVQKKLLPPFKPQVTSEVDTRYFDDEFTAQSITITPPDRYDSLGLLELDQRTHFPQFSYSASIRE
T2 sequence (Q9Y243 whole entry): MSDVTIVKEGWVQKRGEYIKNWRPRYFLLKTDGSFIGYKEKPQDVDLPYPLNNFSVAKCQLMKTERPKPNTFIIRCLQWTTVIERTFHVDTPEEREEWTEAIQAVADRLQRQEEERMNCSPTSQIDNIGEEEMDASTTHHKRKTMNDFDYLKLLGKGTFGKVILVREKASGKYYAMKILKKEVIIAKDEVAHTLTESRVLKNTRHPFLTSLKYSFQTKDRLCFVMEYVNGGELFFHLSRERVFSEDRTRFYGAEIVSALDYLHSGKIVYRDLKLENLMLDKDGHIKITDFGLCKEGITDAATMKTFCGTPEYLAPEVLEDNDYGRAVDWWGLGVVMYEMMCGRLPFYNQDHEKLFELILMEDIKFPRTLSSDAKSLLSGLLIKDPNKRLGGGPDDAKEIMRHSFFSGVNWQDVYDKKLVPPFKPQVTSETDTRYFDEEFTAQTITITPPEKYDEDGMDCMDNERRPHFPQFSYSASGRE

As a reminder, the IC50 is the concentration needed to halve the response being measured. As to `NC1(c2ccc(-c3c(-c4ccccc4)oc4c(ccc5c(I)n[nH]c54)c3=O)cc2)CCC1` [Example 97, 7-[4-(1-Amino-cyclobutyl)-phenyl]-3-iodo-8-phenyl-1H-9-oxa-1,2-diaza-cyclopenta[a]naphthalen-6-one hydrochloride], the 50% inhibitory concentration (IC50) at AKT2 is 1 to 10 µM; at AKT3, > 10 µM; at AKT1 it was ≤ 1 µM.

With `NC1(c2ccc(-c3c(-c4ccccc4)oc4c(Br)cccc4c3=O)cc2)CCC1` [Example 51, 3-[4-(1-Amino-cyclobutyl)-phenyl]-8-bromo-2-phenyl-chromen-4-one], the IC50 on AKT2, at AKT3 and at AKT1 was ≤ 1 µM each time.

With `NC1(c2ccc(C3=C(c4ccccc4)c4ccccc4C3=O)cc2)CCC1` [Example 48, 2-(4-(1-aminocyclobutyl)phenyl)-3-phenyl-1H-inden-1-one hydrochloride], the half-maximal inhibitory concentration (IC50) on AKT2, on AKT3 and at AKT1 was 1 to 10 µM in each case.

Turning to `NC1(c2ccc(-c3c(-c4ccccc4)oc4c(ccc5cn[nH]c54)c3=O)cc2)CCC1` [Example 57, 7-[4-(1-Amino-cyclobutyl)-phenyl]-8-phenyl-1H-9-oxa-1,2-diaza-cyclopenta[a]naphthalen-6-one], the results for the half-inhibitory concentration (IC50) at AKT2, at AKT3 and on AKT1 were ≤ 1 µM, 1 to 10 µM and ≤ 1 µM, respectively.

Regarding `COc1cc2oc(-c3ccccc3)c(-c3ccc(C4(N)CCC4)cc3)c(=O)c2cc1Br` [Example 27, 3-[4-(1-Amino-cyclobutyl)-phenyl]-6-bromo-7-methoxy-2-phenyl-chromen-4-one], the results for the IC50 at AKT2, at AKT3 and at AKT1 were 1 to 10 µM, > 10 µM and > 10 µM, respectively.

For the compound `NC1(c2ccc(-c3c(-c4ccccc4)oc4c(N5CCNC(=O)C5)cccc4c3=O)cc2)CCC1` [Example 77, 4-{3-[4-(1-Amino-cyclobutyl)-phenyl]-4-oxo-2-phenyl-4H-chromen-8-yl}-piperazin-2-one], the values for the IC50 at AKT2, at AKT3 and at AKT1 were 1 to 10 µM, 1 to 10 µM and ≤ 1 µM, respectively.

Consider `NC(=O)c1ccc2c(=O)c(-c3ccc(C4(N)CCC4)cc3)c(-c3ccccc3)oc2c1` [Example 18, 3-[4-(1-Amino-cyclobutyl)-phenyl]-4-oxo-2-phenyl-4H-chromene-7-carboxylic acid amide], for which the results for the concentration for half-maximal inhibition (IC50) on AKT2, on AKT3 and at AKT1 were 1 to 10 µM, > 10 µM and > 10 µM, respectively.

Turning to `Cn1nc(Cl)c2ccc3c(=O)c(-c4ccc(C5(N)CCC5)cc4)c(-c4ccccc4)oc3c21` [Example 100, 7-[4-(1-Amino-cyclobutyl)-phenyl]-3-chloro-1-methyl-8-phenyl-1H-9-oxa-1,2-diaza-cyclopenta[a]naphthalen-6-one hydrochloride], the IC50 on AKT2 was 1 to 10 µM; on AKT3 it was 1 to 10 µM; on AKT1, ≤ 1 µM.

With `NC1(c2ccc(-c3c(-c4ccccc4)oc4c(-c5cccnc5)cccc4c3=O)cc2)CCC1` [Example 56, 3-[4-(1-Amino-cyclobutyl)-phenyl]-2-phenyl-8-pyridin-3-yl-chromen-4-one], the IC50 on AKT2 is ≤ 1 µM; at AKT3 it was 1 to 10 µM; at AKT1 it was ≤ 1 µM.

Consider `NC1(c2ccc(-c3c(-c4ccccc4)oc4c(-n5ccccc5=O)nccc4c3=O)cc2)CCC1` [Example 104, 3-[4-(1-Amino-cyclobutyl)-phenyl]-8-(2-oxo-2H-pyridin-1-yl)-2-phenyl-pyrano[2,3-c]pyridin-4-one hydrochloride], for which the IC50 at AKT2 was > 10 µM; at AKT3 it was > 10 µM; on AKT1, 1 to 10 µM.

As to `CC(C)n1cc2ccc3c(=O)c(-c4ccc(C5(N)CCC5)cc4)c(-c4ccccc4)oc3c2n1` [Example 84, 7-[4-(1-Amino-cyclobutyl)-phenyl]-2-isopropyl-8-phenyl-2H-9-oxa-1,2-diaza-cyclopenta[a]naphthalen-6-one hydrochloride], the results for the 50% inhibitory concentration (IC50) on AKT2, at AKT3 and on AKT1 were ≤ 1 µM, 1 to 10 µM and ≤ 1 µM, respectively.

In the case of `COc1ccc2c(=O)c(-c3ccc(C4(N)CCC4)cc3)c(-c3ccccc3)oc2c1C#N` [Example 12, 3-[4-(1-Amino-cyclobutyl)-phenyl]-7-methoxy-4-oxo-2-phenyl-4H-chromene-8-carbonitrile], the IC50 at AKT2 is ≤ 1 µM; at AKT3, 1 to 10 µM; at AKT1, 1 to 10 µM.

`Cc1nn(C)c(C)c1-c1nccc2c(=O)c(-c3ccc(C4(N)CCC4)cc3)c(-c3ccccc3)oc12` [Example 115, 3-(4-(1-aminocyclobutyl)phenyl)-2-phenyl-8-(1,3,5-trimethyl-1H-pyrazol-4-yl)-4H-pyrano[2,3-c]pyridin-4-one]: the results for the IC50 on AKT2, on AKT3 and at AKT1 were 1 to 10 µM, > 10 µM and > 10 µM, respectively.

Consider `COc1cc2c(=O)c(-c3ccc(C4(N)CCC4)cc3)c(-c3ccccc3)oc2cc1C` [Example 6, 3-[4-(1-Amino-cyclobutyl)-phenyl]-6-methoxy-7-methyl-2-phenyl-chromen-4-one], for which the values for the concentration for half-maximal inhibition (IC50) at AKT2, on AKT3 and at AKT1 were 1 to 10 µM, > 10 µM and > 10 µM, respectively.

On to `COc1cc2c(=O)c(-c3ccc(C4(N)CCC4)cc3)c(-c3ccccc3)oc2cc1Br` [Example 26, 3-[4-(1-Amino-cyclobutyl)-phenyl]-7-bromo-6-methoxy-2-phenyl-chromen-4-one], for which the half-maximal inhibitory concentration (IC50) at AKT2 is 1 to 10 µM; on AKT3 it was > 10 µM; at AKT1 it was > 10 µM.

Consider `NC1(c2ccc(-c3c(-c4ccccc4)oc4ncccc4c3=O)cc2)CCC1` [Example 34, 3-[4-(1-Amino-cyclobutyl)-phenyl]-2-phenyl-pyrano[2,3-b]pyridin-4-one], for which the concentration for half-maximal inhibition (IC50) at AKT2 was 1 to 10 µM; on AKT3, > 10 µM; on AKT1, 1 to 10 µM.

For `Cn1ncc2ccc3c(=O)c(-c4ccc(C5(N)CCC5)nc4)c(-c4ccccc4)oc3c21` [Example 71, 7-[6-(1-Amino-cyclobutyl)-pyridin-3-yl]-1-methyl-8-phenyl-1H-9-oxa-1,2-diaza-cyclopenta[a]naphthalen-6-one hydrochloride], the half-inhibitory concentration (IC50) was > 10 µM on AKT2, > 10 µM on AKT3 and ≤ 1 µM at AKT1.

Consider `NC1(c2ccc(-c3c(-c4ccccc4)oc4c(Oc5ccccn5)nccc4c3=O)cc2)CCC1` [Example 103, 3-[1-(1-Amino-cyclobutyl)-phenyl]-2-phenyl-8-(pyridin-2-yloxy)-pyrano[2,3-c]pyridin-4-one hydrochloride], for which the figures for the IC50 at AKT2, on AKT3 and on AKT1 were 1 to 10 µM, > 10 µM and ≤ 1 µM, respectively.

Consider `Nc1ccc2c(=O)c(-c3ccc(C4(N)CCC4)cc3)c(-c3ccccc3)oc2c1` [Example 47, 7-Amino-3-[4-(1-amino-cyclobutyl)-phenyl]-2-phenyl-1-benzopyran-4-one.TFA], for which the IC50 is 1 to 10 µM on AKT2, > 10 µM at AKT3 and 1 to 10 µM at AKT1.

On to `NC1(c2ccc(-c3c(-c4ccccc4)oc4c5c(ccc4c3=O)OCC(=O)N5)cc2)CCC1` [Example 109, 8-(4-(1-aminocyclobutyl)phenyl)-9-phenylchromeno[7,8-b][1.4]oxazine-2,7(1H,3H)-dione], for which the IC50 on AKT2 was 1 to 10 µM; on AKT3, 1 to 10 µM; at AKT1, ≤ 1 µM.

Regarding `NC1(c2ccc(-c3c(-c4ccccc4)oc4c(F)cccc4c3=O)cc2)CCC1` [Example 2, 3-[4-(1-Amino-cyclobutyl)-phenyl]-8-fluoro-2-phenyl-chromen-4-one], the 50% inhibitory concentration (IC50) at AKT2 is 1 to 10 µM; at AKT3, > 10 µM; on AKT1, ≤ 1 µM.

`NC1(c2ccc(-c3c(-c4ccccc4)oc4c(-n5ccnc5)cccc4c3=O)cc2)CCC1` [Example 74, 3-[4-(1-Amino-cyclobutyl)-phenyl]-8-imidazol-1-yl-2-phenyl-chromen-4-one hydrochloride]: the half-inhibitory concentration (IC50) on AKT2 was ≤ 1 µM; on AKT3 it was 1 to 10 µM; on AKT1 it was ≤ 1 µM.

`NC1(c2ccc(-c3c(-c4ccccc4)oc4ccccc4c3=S)cc2)CCC1` [Example 65, 3-[4-(1-Amino-cyclobutyl)-phenyl]-2-phenyl-chromene-4-thione hydrochloride]: the IC50 at AKT2, on AKT3 and at AKT1 was 1 to 10 µM in each case.
